This note sets out measurements from PubChem BioAssay (NCI).

Some test systems named below: NCI/ADR-RES ovarian; SNB-19 CNS; UACC-257 melanoma; SK-OV-3 ovarian; UACC-62 melanoma; SR leukemia; SF-295 CNS; EKVX NSCLC; HS 578T breast; RPMI-8226 leukemia.
Holding throughout (assay): NCI tumour cell line growth inhibition, 48 h

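These data come from cells grown in 96-well plates and exposed to compound for 48 hours at five concentrations. Here, GI50 denotes the concentration required for 50% inhibition of growth. TGI: concentration producing complete growth inhibition.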

Take `C[C@@]1(O)C2CC3CC1(c1ccccc1)CC(/C3=N/O)/C2=N\O` (stereo partly specified): the TGI in the experiment with NCI/ADR-RES ovarian, with SNB-19 CNS, with UACC-257 melanoma, in the experiment on SK-OV-3 ovarian, in the experiment on UACC-62 melanoma and in the experiment with SR leukemia was above 100 µM throughout. Moreover, the TGI in the experiment with SF-295 CNS and in the experiment on EKVX NSCLC was above 100 µM throughout.

As for `O=C(Nc1ccc(N2C(=O)CSC2c2ccccc2O)cc1)c1ccc(N2C(=O)CSC2c2ccccc2O)cc1` (stereo unspecified), the TGI with NCI/ADR-RES ovarian is above 100 µM; with SNB-19 CNS, above 100 µM; in the experiment on UACC-257 melanoma, above 100 µM; with SK-OV-3 ovarian it was 62.3 µM; in the experiment on UACC-62 melanoma, 98.1 µM; with SF-295 CNS it was above 100 µM. Further, the TGI with HS 578T breast, in the experiment on EKVX NSCLC and with RPMI-8226 leukemia was above 100 µM in each case.

Consider `Cn1c(=O)c2[nH]c(N/N=N/c3nncs3)nc2n(C)c1=O`, for which the TGI with NCI/ADR-RES ovarian, in the experiment with SNB-19 CNS, in the experiment on UACC-257 melanoma, in the experiment on SK-OV-3 ovarian, with UACC-62 melanoma and with SF-295 CNS was above 100 µM each time. Moreover, the TGI in the experiment with HS 578T breast and in the experiment with EKVX NSCLC was above 100 µM throughout.

In the case of `CSc1ncc2c(n1)C(C#N)C1Sc3ccccc3N1C2=O` (stereo unspecified), the TGI in the experiment with NCI/ADR-RES ovarian, with SNB-19 CNS, in the experiment with UACC-257 melanoma, in the experiment on SK-OV-3 ovarian, in the experiment with SF-295 CNS and in the experiment with EKVX NSCLC was above 100 µM in each case. In the experiment on RPMI-8226 leukemia, this molecule yielded a TGI above 100 µM.

As to `COc1ccc(N2CC(=O)N(C(=O)COc3ccc(OCC(=O)N4C(=O)CN(c5ccc(OC)cc5)C4=S)cc3)C2=S)cc1`, the TGI with NCI/ADR-RES ovarian, in the experiment on SNB-19 CNS, in the experiment on UACC-257 melanoma, in the experiment with SK-OV-3 ovarian, in the experiment with UACC-62 melanoma and in the experiment with SF-295 CNS was above 100 µM each time. Also, the TGI in the experiment on EKVX NSCLC and in the experiment with RPMI-8226 leukemia was above 100 µM throughout.

Turning to `CCO/C(=N/S(=O)(=O)C(F)(F)F)N(C(C)C)C(C)C`, the TGI with NCI/ADR-RES ovarian, in the experiment with SNB-19 CNS, in the experiment with UACC-257 melanoma, in the experiment on UACC-62 melanoma, in the experiment with HS 578T breast and in the experiment on EKVX NSCLC was above 100 µM throughout. Besides, the TGI in the experiment on RPMI-8226 leukemia was above 100 µM.

As to `CN1CCC(CNc2cc(C3(C(=O)Nc4cc(C(=O)Nc5ccc(Cl)c(C(F)(F)F)c5)ccc4F)CC3)ncn2)CC1`, the GI50 was 5.46 µM with NCI/ADR-RES ovarian, 2.17 µM with SK-OV-3 ovarian, 1.99 µM in the experiment on HS 578T breast and 2.46 µM in the experiment with EKVX NSCLC. Further, the TGI came out at 36.6 µM in the experiment with NCI/ADR-RES ovarian, 4.58 µM in the experiment with SK-OV-3 ovarian, 6.19 µM in the experiment with HS 578T breast and 6.62 µM with EKVX NSCLC.

With `COc1ccc([C@H]2[C@H]3COC(=O)[C@H]3C(C#N)=C3Sc4ccccc4N32)cc1`, the TGI is above 62.5 µM in the experiment with NCI/ADR-RES ovarian; above 100 µM in the experiment on SNB-19 CNS; above 100 µM in the experiment with UACC-257 melanoma; above 100 µM in the experiment on SK-OV-3 ovarian; above 100 µM in the experiment on UACC-62 melanoma; above 90.8 µM in the experiment on SF-295 CNS. In addition, the TGI with HS 578T breast was above 100 µM; with EKVX NSCLC, above 100 µM; in the experiment on RPMI-8226 leukemia, 72 µM.

In the case of `Cc1cc(C)nc(NS(=O)(=O)c2ccc(NC(=O)c3c4ccccc4nc4ccccc34)cc2)n1`, the TGI in the experiment with NCI/ADR-RES ovarian, in the experiment with SNB-19 CNS, in the experiment with UACC-257 melanoma, in the experiment on SK-OV-3 ovarian, in the experiment with UACC-62 melanoma and in the experiment on SR leukemia was above 100 µM throughout. Moreover, the TGI with SF-295 CNS, in the experiment on EKVX NSCLC and with RPMI-8226 leukemia was above 100 µM throughout.

With `N#Cc1c(-c2ccc(Cl)cc2)c2c(nn3c4ccc5ccccc5c4nnc23)[nH]c1=O`, the TGI in the experiment on NCI/ADR-RES ovarian worked out at 26 µM; with SNB-19 CNS, 24.2 µM; in the experiment with UACC-257 melanoma, 18.8 µM; in the experiment on SK-OV-3 ovarian, 7.99 µM; with UACC-62 melanoma it was 3.24 µM; with SF-295 CNS, 5.47 µM. For the same molecule, the TGI with HS 578T breast is 6.54 µM; in the experiment with EKVX NSCLC it was 27.1 µM; in the experiment with RPMI-8226 leukemia, above 28.9 µM.

As for `CCOC(=O)C(C#N)(Cc1c[nH]c2ccccc12)NC(C)=O` (stereo unspecified), the TGI with UACC-257 melanoma, in the experiment on SK-OV-3 ovarian, in the experiment with UACC-62 melanoma, in the experiment with SF-295 CNS, in the experiment on EKVX NSCLC and with RPMI-8226 leukemia was above 100 µM each time.

For `COc1ccc2c(c1)C(=O)CC1c3cnccc3C(=O)N21` (stereo unspecified), the TGI in the experiment on NCI/ADR-RES ovarian, in the experiment with SNB-19 CNS, with UACC-257 melanoma, in the experiment on SK-OV-3 ovarian, in the experiment on UACC-62 melanoma and in the experiment on SR leukemia was above 100 µM each time. For the same molecule, the TGI in the experiment on SF-295 CNS, with EKVX NSCLC and in the experiment on RPMI-8226 leukemia was above 100 µM in each case.

As to `CNC(C)(C)Cc1ccc(Cl)cc1`, the TGI with UACC-257 melanoma, in the experiment with SK-OV-3 ovarian, with UACC-62 melanoma, in the experiment with SF-295 CNS, in the experiment on EKVX NSCLC and in the experiment on RPMI-8226 leukemia was above 100 µM in each case.

Regarding `c1ccc(-c2csc3c4ccccc4c4ccccc4[n+]23)cc1`, the TGI was 7.52 µM with SNB-19 CNS; 3.27 µM in the experiment with UACC-257 melanoma; 38.5 µM in the experiment with SK-OV-3 ovarian; 5.27 µM in the experiment on UACC-62 melanoma; above 100 µM in the experiment with SR leukemia; 16 µM in the experiment with SF-295 CNS. For the same molecule, the TGI was 31.8 µM in the experiment with EKVX NSCLC and above 100 µM with RPMI-8226 leukemia.

In the case of `CC(=O)O[C@H]1CC(C)(C)C(=C=C/C(C)=C/C=C/C=C/C=C(C)/C=C2C=C(/C=C/[C@@]34O[C@]3(C)C[C@@H](O)CC4(C)C)C(=O)O/2)[C@](C)(O)C1`, the TGI with NCI/ADR-RES ovarian is 34.5 µM; in the experiment on SNB-19 CNS it was above 100 µM; with UACC-257 melanoma, 51.5 µM; with UACC-62 melanoma, 24 µM; in the experiment with SR leukemia, 74.8 µM; in the experiment with SF-295 CNS, 34.3 µM. The molecule further showed a TGI with RPMI-8226 leukemia of 27.9 µM.

With `C1=C(c2ccccc2)SC(N2CCCCC2)S1` (stereo unspecified), the TGI with SNB-19 CNS, in the experiment with UACC-257 melanoma, with SK-OV-3 ovarian, in the experiment with UACC-62 melanoma, in the experiment with SR leukemia and in the experiment on SF-295 CNS was above 100 µM in each case. For the same molecule, the TGI in the experiment with EKVX NSCLC and in the experiment with RPMI-8226 leukemia was above 100 µM in each case.
